Experimental data as given in ChEMBL document CHEMBL1124634, “Synthesis and antirhinovirus activity of 6-(dimethylamino)-2-(trifluoromethyl)-9-(substituted benzyl)-9H-purines” (J Med Chem, 1989).

Key:
Human rhinovirus sp. [1] = assay: Antiviral activity against rhinoviral-1B serotype in a plaque inhibition assay using monolayers of M-HeLa cells; format: functional, organism-based
Human rhinovirus sp. [2] = assay: Antiviral activity against rhinoviral 18 serotype in a plaque inhibition assay using monolayers of M-HeLa cells; format: functional, organism-based
Human rhinovirus sp. [3] = assay: Antiviral activity against rhinoviral 29 serotype in a plaque inhibition assay using monolayers of M-HeLa cells; format: functional, organism-based
Human rhinovirus sp. [4] = assay: Antiviral activity against rhinoviral 2 serotype in a plaque inhibition assay using monolayers of M-HeLa cells; format: functional, organism-based
Human rhinovirus sp. [5] = assay: Antiviral activity against rhinoviral 30 serotype in a plaque inhibition assay using monolayers of M-HeLa cells; format: functional, organism-based
Human rhinovirus sp. [6] = assay: Antiviral activity against rhinoviral 3 serotype in a plaque inhibition assay using monolayers of M-HeLa cells; format: functional, organism-based
Human rhinovirus sp. [7] = assay: Antiviral activity against rhinoviral 4 serotype in a plaque inhibition assay using monolayers of M-HeLa cells; format: functional, organism-based
Human rhinovirus sp. [8] = assay: Antiviral activity against rhinoviral 8 serotype in a plaque inhibition assay using monolayers of M-HeLa cells; format: functional, organism-based
Human rhinovirus sp. [9] = assay: Antiviral activity against rhinoviral 14 serotype in a plaque inhibition assay using monolayers of M-HeLa cells; format: functional, organism-based
Human rhinovirus sp. [10] = assay: Antiviral activity against rhinoviral 15 serotype in a plaque inhibition assay using monolayers of M-HeLa cells; format: functional, organism-based
Human rhinovirus sp. [11] = assay: Antiviral activity against rhinoviral 16 serotype in a plaque inhibition assay using monolayers of M-HeLa cells; format: functional, organism-based
Human rhinovirus sp. [12] = assay: Antiviral activity against rhinoviral 12 serotype in a plaque inhibition assay using monolayers of M-HeLa cells; format: functional, organism-based
Human rhinovirus sp. [13] = assay: Antiviral activity against rhinoviral-1A serotype in a plaque inhibition assay using monolayers of M-HeLa cells; format: functional, organism-based
Human rhinovirus sp. [14] = assay: Percent inhibitory activity at 8 uM against rhinoviral 13 serotype in a plaque inhibition assay using monolayers of M-HeLa cells; format: functional
Human rhinovirus sp. [15] = assay: Percent inhibitory activity at 8 uM against rhinoviral 19s erotype in a plaque inhibition assay using monolayers of M-HeLa cells; format: functional
Human rhinovirus sp. [16] = assay: Percent inhibitory activity at 8 uM against rhinoviral 5 serotype in a plaque inhibition assay using monolayers of M-HeLa cells; format: functional
Human rhinovirus sp. [17] = assay: Antiviral activity against rhinoviral 21 serotype in a plaque inhibition assay using monolayers of M-HeLa cells; format: functional, organism-based
Human rhinovirus sp. [18] = assay: Antiviral activity against rhinoviral 9 serotype in a plaque inhibition assay using monolayers of M-HeLa cells; format: functional, organism-based
Human rhinovirus sp. [19] = assay: Antiviral activity against rhinoviral 31 serotype in a plaque inhibition assay using monolayers of M-HeLa cells; format: functional, organism-based
Human rhinovirus sp. [20] = assay: Percent inhibitory activity at 8 uM against rhinoviral 14 serotype in a plaque inhibition assay using monolayers of M-HeLa cells; format: functional
Human rhinovirus sp. [21] = assay: Percent inhibitory activity at 8 uM against rhinoviral 15 serotype in a plaque inhibition assay using monolayers of M-HeLa cells; format: functional
Human rhinovirus sp. [22] = assay: Percent inhibitory activity at 8 uM against rhinoviral 21 serotype in a plaque inhibition assay using monolayers of M-HeLa cells; format: functional
Human rhinovirus sp. [23] = assay: Antiviral activity against rhinoviral 5 serotype in a plaque inhibition assay using monolayers of M-HeLa cells; format: functional, organism-based
Human rhinovirus sp. [24] = assay: Antiviral activity against rhinoviral-18 serotype in a plaque inhibition assay using monolayers of M-HeLa cells; format: functional, organism-based
Human rhinovirus sp. [25] = assay: Antiviral activity against rhinoviral-19 serotype in a plaque inhibition assay using monolayers of M-HeLa cells; format: functional, organism-based
Human rhinovirus sp. [26] = assay: Percent inhibitory activity at 8 uM against rhinoviral 29 serotype in a plaque inhibition assay using monolayers of M-HeLa cells; format: functional
Human rhinovirus sp. [27] = assay: Percent inhibitory activity at 8 uM against rhinoviral 3 serotype in a plaque inhibition assay using monolayers of M-HeLa cells; format: functional
Human rhinovirus sp. [28] = assay: Percent inhibitory activity at 8 uM against rhinoviral 4 serotype in a plaque inhibition assay using monolayers of M-HeLa cells; format: functional
Human rhinovirus sp. [29] = assay: Percent inhibitory activity at 8 uM against rhinoviral 30 serotype in a plaque inhibition assay using monolayers of M-HeLa cells; format: functional
Human rhinovirus sp. [30] = assay: Percent inhibitory activity at 8 uM against rhinoviral 31 serotype in a plaque inhibition assay using monolayers of M-HeLa cells; format: functional

Work on `CN(C)c1nc(C(F)(F)F)nc2c1ncn2Cc1ccccc1[N+](=O)[O-]` yielded an IC50 (Human rhinovirus sp. [1]) of 280 µM.

For `COc1cc(Cl)ccc1Cn1cnc2c(N(C)C)nc(C(F)(F)F)nc21`, the IC50 (Human rhinovirus sp. [1]) was 135 µM.

Molecule `CN(C)c1nc(C(F)(F)F)nc2c1ncn2Cc1ccc(Br)cc1` has an IC50 (Human rhinovirus sp. [2]) of 7.5 µM, an IC50 (Human rhinovirus sp. [3]) of 3.2 µM and an IC50 (Human rhinovirus sp. [4]) of 7.3 µM. The IC50 (Human rhinovirus sp. [5]) was 4.6 µM, the IC50 (Human rhinovirus sp. [6]) was 8 µM and the IC50 (Human rhinovirus sp. [7]) was 7.6 µM. It also gave an IC50 (Human rhinovirus sp. [8]) of 8.3 µM, an IC50 (Human rhinovirus sp. [9]) of 8.1 µM and an IC50 (Human rhinovirus sp. [10]) of 5.7 µM. For the same molecule, the IC50 (Human rhinovirus sp. [11]) was 1.2 µM, the IC50 (Human rhinovirus sp. [12]) was 9.5 µM and the IC50 (Human rhinovirus sp. [13]) was 0.76 µM. It also gave an IC50 (Human rhinovirus sp. [1]) of 0.03 µM, an Inhibition (Human rhinovirus sp. [14]) of 40% and an Inhibition (Human rhinovirus sp. [15]) of 27%. It also gave an Inhibition (Human rhinovirus sp. [16]) of 37%, an IC50 (Human rhinovirus sp. [17]) of 5 µM and an IC50 (Human rhinovirus sp. [18]) of 0.7 µM. It also gave an IC50 (Human rhinovirus sp. [19]) of 5.5 µM.

Molecule `CN(C)c1nc(C(F)(F)F)nc2c1ncn2Cc1ccc(N)cc1` has an IC50 (Human rhinovirus sp. [1]) of 0.13 µM.

With `CN(C)c1nc(C(F)(F)F)nc2c1ncn2Cc1cccc([N+](=O)[O-])c1` the IC50 (Human rhinovirus sp. [1]) was 0.13 µM.

Work on `CC(C)Oc1ccc(Cn2cnc3c(N(C)C)nc(C(F)(F)F)nc32)cc1` yielded an IC50 (Human rhinovirus sp. [2]) of 6.8 µM, an IC50 (Human rhinovirus sp. [3]) of 2.5 µM and an IC50 (Human rhinovirus sp. [4]) of 5.2 µM. For the same molecule, the IC50 (Human rhinovirus sp. [5]) was 6.6 µM, the IC50 (Human rhinovirus sp. [6]) was 8 µM and the IC50 (Human rhinovirus sp. [7]) was 3.7 µM. For the same molecule, the IC50 (Human rhinovirus sp. [8]) was 10 µM, the IC50 (Human rhinovirus sp. [11]) was 2.1 µM and the IC50 (Human rhinovirus sp. [12]) was 10 µM. It also gave an IC50 (Human rhinovirus sp. [13]) of 2.8 µM, an IC50 (Human rhinovirus sp. [1]) of 1 µM and an Inhibition (Human rhinovirus sp. [14]) of 39%. The Inhibition (Human rhinovirus sp. [20]) was 22%, the Inhibition (Human rhinovirus sp. [21]) was 40% and the Inhibition (Human rhinovirus sp. [15]) was 33%. For the same molecule, the Inhibition (Human rhinovirus sp. [22]) was 40%, the IC50 (Human rhinovirus sp. [23]) was 11 µM and the IC50 (Human rhinovirus sp. [18]) was 1.5 µM. For the same molecule, the IC50 (Human rhinovirus sp. [19]) was 4.2 µM.

With `Cc1cc(Cl)ccc1Cn1cnc2c(N(C)C)nc(C(F)(F)F)nc21` the IC50 (Human rhinovirus sp. [4]) was 9 µM, the IC50 (Human rhinovirus sp. [8]) was 9.5 µM and the IC50 (Human rhinovirus sp. [9]) was 9 µM. For the same molecule, the IC50 (Human rhinovirus sp. [11]) was 1.9 µM, the IC50 (Human rhinovirus sp. [12]) was 7.8 µM and the IC50 (Human rhinovirus sp. [24]) was 10 µM. For the same molecule, the IC50 (Human rhinovirus sp. [25]) was 10 µM, the IC50 (Human rhinovirus sp. [13]) was 0.82 µM and the IC50 (Human rhinovirus sp. [1]) was 0.12 µM. The Inhibition (Human rhinovirus sp. [14]) was 23%, the Inhibition (Human rhinovirus sp. [21]) was 11% and the Inhibition (Human rhinovirus sp. [22]) was 22%. For the same molecule, the Inhibition (Human rhinovirus sp. [26]) was 32%, the Inhibition (Human rhinovirus sp. [27]) was 29% and the Inhibition (Human rhinovirus sp. [28]) was 25%. The IC50 (Human rhinovirus sp. [23]) was > 8 µM, the IC50 (Human rhinovirus sp. [18]) was 2 µM and the Inhibition (Human rhinovirus sp. [29]) was 28%. For the same molecule, the IC50 (Human rhinovirus sp. [19]) was 12 µM.

For `CN(C)c1nc(C(F)(F)F)nc2c1ncn2Cc1cccc(C(=O)O)c1`, the IC50 (Human rhinovirus sp. [1]) was 4.6 µM.

`CCCCOc1ccc(Cn2cnc3c(N(C)C)nc(C(F)(F)F)nc32)cc1` showed an IC50 (Human rhinovirus sp. [1]) of 2.1 µM.

`CN(C)c1nc(C(F)(F)F)nc2c1ncn2Cc1ccc(Cl)cc1NC=O` was tested, and the IC50 (Human rhinovirus sp. [1]) was 6.9 µM.

Molecule `COc1cc(C)ccc1Cn1cnc2c(N(C)C)nc(C(F)(F)F)nc21` has an IC50 (Human rhinovirus sp. [1]) of 70 µM.

`CN(C)c1nc(C(F)(F)F)nc2c1ncn2Cc1cccc(N)c1` showed an IC50 (Human rhinovirus sp. [1]) of 0.3 µM.

Molecule `CC(=O)Nc1ccc(Cn2cnc3c(N(C)C)nc(C(F)(F)F)nc32)cc1` has an IC50 (Human rhinovirus sp. [1]) of 0.37 µM.

For `CN(C)c1nc(C(F)(F)F)nc2c1ncn2Cc1ccc(C(=O)O)cc1`, the IC50 (Human rhinovirus sp. [1]) was 4.6 µM.

For `CCOC(=O)c1ccc(Cn2cnc3c(N(C)C)nc(C(F)(F)F)nc32)cc1`, the IC50 (Human rhinovirus sp. [1]) was 5 µM.

With `CN(C)c1cccc(Cn2cnc3c(N(C)C)nc(C(F)(F)F)nc32)c1` the IC50 (Human rhinovirus sp. [1]) was 0.25 µM.

`CN(C)c1nc(C(F)(F)F)nc2c1ncn2Cc1ccc(Cl)c(N)c1` showed an IC50 (Human rhinovirus sp. [4]) of 6.5 µM, an IC50 (Human rhinovirus sp. [6]) of 14 µM and an IC50 (Human rhinovirus sp. [7]) of 7.2 µM. For the same molecule, the IC50 (Human rhinovirus sp. [8]) was 6.2 µM, the IC50 (Human rhinovirus sp. [9]) was 7.1 µM and the IC50 (Human rhinovirus sp. [10]) was 5.8 µM. The IC50 (Human rhinovirus sp. [11]) was 1.6 µM, the IC50 (Human rhinovirus sp. [12]) was 5.2 µM and the IC50 (Human rhinovirus sp. [24]) was 14 µM. For the same molecule, the IC50 (Human rhinovirus sp. [13]) was 2.4 µM, the IC50 (Human rhinovirus sp. [1]) was 0.17 µM and the Inhibition (Human rhinovirus sp. [14]) was 18%. The Inhibition (Human rhinovirus sp. [15]) was 40%, the Inhibition (Human rhinovirus sp. [22]) was 10% and the Inhibition (Human rhinovirus sp. [26]) was 26%. The Inhibition (Human rhinovirus sp. [30]) was 29%, the IC50 (Human rhinovirus sp. [23]) was > 8 µM and the IC50 (Human rhinovirus sp. [18]) was 1.5 µM. For the same molecule, the Inhibition (Human rhinovirus sp. [29]) was 34%.

`CN(C)c1nc(C(F)(F)F)nc2c1ncn2Cc1cccc(OCc2ccccc2)c1` showed an IC50 (Human rhinovirus sp. [1]) of 1.1 µM.

With `CN(C)c1nc(C(F)(F)F)nc2c1ncn2Cc1ccc(CO)cc1` the IC50 (Human rhinovirus sp. [1]) was 0.2 µM.

For `CN(C)c1nc(C(F)(F)F)nc2c1ncn2Cc1ccc(O)cc1`, the IC50 (Human rhinovirus sp. [1]) was 0.17 µM.

`COC(=O)c1cccc(Cn2cnc3c(N(C)C)nc(C(F)(F)F)nc32)c1` showed an IC50 (Human rhinovirus sp. [1]) of 2.6 µM.

`CN(C)c1nc(C(F)(F)F)nc2c1ncn2Cc1ccc(Cl)cc1[N+](=O)[O-]` gave an IC50 (Human rhinovirus sp. [1]) of 0.53 µM.

Molecule `COc1cccc(Cn2cnc3c(N(C)C)nc(C(F)(F)F)nc32)c1` has an IC50 (Human rhinovirus sp. [1]) of 0.1 µM.
